“And” between values parts separate entries of the source, which are not always exact repeats. Equal values may be shown once. Inconclusive results are not listed.

Drawing on PubChem BioAssay AID220 (DTP/NCI, 2004), this text covers T/C for 10 compounds.

For this assay, the system named is CD8F1 mice, subcutaneous mammary adenocarcinoma, T/C%. Briefly: NCI In Vivo Anticancer Drug Screen. Data for tumor model Mammary Adenocarcinoma CD8F1 (subcutaneous) in CD8F1. The following applies: higher = larger tumour. The procedure, abridged: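 Antitumor activity is assessed in transplantable-tumor mice by comparing the treated group with a vehicle-treated control group. Survival or tumor size serves as the measure, reported as T divided by C.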

[1] abbreviates: endpoint: median tumor weight (est.), dose: 1.0 mg/kg/injection, schedule: Q07DX005 (ip), vehicle: saline.
[2] abbreviates: endpoint: median tumor weight change, dose: 62.5 mg/kg/injection, schedule: Q01DX001 (ip), vehicle: saline with Tween-80.
Where [3] appears, read: endpoint: median tumor weight change, dose: 125.0 mg/kg/injection, schedule: Q01DX001 (ip), vehicle: saline with Tween-80.
The mark [4] stands for this setting: endpoint: median tumor weight change, dose: 250.0 mg/kg/injection, schedule: Q01DX001 (ip), vehicle: saline with Tween-80.
[5] abbreviates: endpoint: median tumor weight change, dose: 500.0 mg/kg/injection, schedule: Q01DX001 (ip), vehicle: saline with Tween-80.

Turning to `CCOC(OCC)C(=O)OCC(=O)[C@]1(O)Cc2c(O)c3c(c(O)c2[C@@H](OC2CC(N)C(O)C(C)O2)C1)C(=O)c1c(OC)cccc1C3=O` (some centres undefined), the T/C reads like this: (endpoint: median tumor weight (est.), dose: 0.5 mg/kg/injection, schedule: Q07DX005 (ip), vehicle: water) 166 % of control; under setting [1], 85 % of control; (endpoint: median tumor weight (est.), dose: 1.0 mg/kg/injection, schedule: Q07DX005 (ip), vehicle: water) 50 % of control; (endpoint: median tumor weight (est.), dose: 2.0 mg/kg/injection, schedule: Q07DX005 (ip), vehicle: saline) 47 % of control; (endpoint: median tumor weight (est.), dose: 2.0 mg/kg/injection, schedule: Q07DX005 (ip), vehicle: water) 74 % of control; (endpoint: median tumor weight (est.), dose: 4.0 mg/kg/injection, schedule: Q07DX005 (ip), vehicle: saline) 20 % of control. Further, under “endpoint: median tumor weight (est.), dose: 4.0 mg/kg/injection, schedule: Q07DX005 (ip), vehicle: water”, the T/C was 24 % of control.
With `CN1CCc2c(c3ccccc3c3ccccc23)C1`, the T/C by setting is: (endpoint: median tumor weight change, dose: 12.5 mg/kg/injection, schedule: Q01DX001 (ip), vehicle: Klucel (hydroxypropylcellulose) (HPC)) 57 % of control; (endpoint: median tumor weight change, dose: 25.0 mg/kg/injection, schedule: Q01DX001 (ip), vehicle: Klucel (hydroxypropylcellulose) (HPC)) 65 % of control; (endpoint: median tumor weight change, dose: 50.0 mg/kg/injection, schedule: Q01DX001 (ip), vehicle: Klucel (hydroxypropylcellulose) (HPC)) 49 % of control; (endpoint: median tumor weight change, dose: 62.5 mg/kg/injection, schedule: Q01DX001 (ip), vehicle: Klucel (hydroxypropylcellulose) (HPC)) 74 % of control; (endpoint: median tumor weight change, dose: 100.0 mg/kg/injection, schedule: Q01DX001 (ip), vehicle: Klucel (hydroxypropylcellulose) (HPC)) 27 % of control; (endpoint: median tumor weight change, dose: 125.0 mg/kg/injection, schedule: Q01DX001 (ip), vehicle: Klucel (hydroxypropylcellulose) (HPC)) 56 % of control.
As to `CCN1C=C/C(=C\C=C/c2cc[n+](CC)c3ccccc23)c2ccccc21`, the T/C reads like this: (endpoint: median tumor weight (est.), dose: 0.06 mg/kg/injection, schedule: Q07DX005 (ip), vehicle: saline) 123 % of control; (endpoint: median tumor weight (est.), dose: 0.06 mg/kg/injection, schedule: Q07DX005 (ip), vehicle: suspension in saline) 104 % of control; (endpoint: median tumor weight (est.), dose: 0.12 mg/kg/injection, schedule: Q07DX005 (ip), vehicle: saline) 88 % of control; (endpoint: median tumor weight (est.), dose: 0.12 mg/kg/injection, schedule: Q07DX005 (ip), vehicle: suspension in saline) 83 % of control; (endpoint: median tumor weight (est.), dose: 0.25 mg/kg/injection, schedule: Q07DX005 (ip), vehicle: saline) 150 % of control; (endpoint: median tumor weight (est.), dose: 0.25 mg/kg/injection, schedule: Q07DX005 (ip), vehicle: suspension in saline) 119 % of control. Moreover, the T/C is, setting by setting: (endpoint: median tumor weight (est.), dose: 0.5 mg/kg/injection, schedule: Q07DX005 (ip), vehicle: saline) 109 % of control; under setting [1], 101 % of control; (endpoint: median tumor weight (est.), dose: 1.0 mg/kg/injection, schedule: Q07DX005 (ip), vehicle: suspension in saline) 75 % of control.
For `CC1OC(OC2CC(O)(C(=O)CO)Cc3c(O)c4c(c(O)c32)C(=O)c2ccccc2C4=O)CC(N)C1O` (centres undefined), the T/C runs as follows: (endpoint: mean tumor weight, dose: 0.12 mg/kg/injection, schedule: Q07DX006 (ip), vehicle: saline) 40 % of control; (endpoint: mean tumor weight, dose: 0.5 mg/kg/injection, schedule: Q07DX006 (ip), vehicle: saline) 1 % of control; (endpoint: median tumor weight change, dose: 0.31 mg/kg/injection, schedule: Q01DX001 (ip), vehicle: water) 67 % of control; (endpoint: median tumor weight change, dose: 0.62 mg/kg/injection, schedule: Q01DX001 (ip), vehicle: water) 37 % of control; (endpoint: median tumor weight change, dose: 1.25 mg/kg/injection, schedule: Q01DX001 (ip), vehicle: water) 26 % of control and 28 % of control.
`COc1ccc(C(=O)/C(Br)=C/C(=O)O)cc1`: the T/C runs as follows: (endpoint: mean tumor weight, dose: 8.0 mg/kg/injection, schedule: Q07DX004 (ip), vehicle: saline) 69 % of control; (endpoint: mean tumor weight, dose: 12.5 mg/kg/injection, schedule: Q01DX009 (ip), vehicle: saline) 206 % of control and 122 % of control; (endpoint: mean tumor weight, dose: 16.0 mg/kg/injection, schedule: Q07DX004 (ip), vehicle: saline) 171 % of control; (endpoint: mean tumor weight, dose: 25.0 mg/kg/injection, schedule: Q01DX009 (ip), vehicle: saline) 241 % of control and 113 % of control; (endpoint: mean tumor weight, dose: 25.0 mg/kg/injection, schedule: Q07DX006 (ip), vehicle: saline) 190 % of control; (endpoint: mean tumor weight, dose: 32.0 mg/kg/injection, schedule: Q07DX004 (ip), vehicle: saline) 163 % of control. The T/C is, setting by setting: (endpoint: mean tumor weight, dose: 50.0 mg/kg/injection, schedule: Q01DX009 (ip), vehicle: saline) 156 % of control and 209 % of control; (endpoint: mean tumor weight, dose: 50.0 mg/kg/injection, schedule: Q07DX006 (ip), vehicle: saline) 86 % of control; (endpoint: mean tumor weight, dose: 64.0 mg/kg/injection, schedule: Q07DX004 (ip), vehicle: saline) 89 % of control; (endpoint: median tumor weight (est.), dose: 4.0 mg/kg/injection, schedule: Q01DX005 (ip), vehicle: saline) 159 % of control; (endpoint: median tumor weight (est.), dose: 8.0 mg/kg/injection, schedule: Q04DX005 (ip), vehicle: saline) 114 % of control; (endpoint: median tumor weight (est.), dose: 8.0 mg/kg/injection, schedule: Q07DX005 (ip), vehicle: saline) 120 % of control. Besides, the T/C by setting is: (endpoint: median tumor weight (est.), dose: 16.0 mg/kg/injection, schedule: Q01DX005 (ip), vehicle: saline) 100 % of control; (endpoint: median tumor weight (est.), dose: 16.0 mg/kg/injection, schedule: Q07DX005 (ip), vehicle: saline) 120 % of control; (endpoint: median tumor weight (est.), dose: 32.0 mg/kg/injection, schedule: Q01DX005 (ip), vehicle: saline) 116 % of control; (endpoint: median tumor weight (est.), dose: 32.0 mg/kg/injection, schedule: Q07DX005 (ip), vehicle: saline) 50 % of control; (endpoint: median tumor weight (est.), dose: 64.0 mg/kg/injection, schedule: Q01DX005 (ip), vehicle: saline) 56 % of control; (endpoint: median tumor weight (est.), dose: 64.0 mg/kg/injection, schedule: Q04DX005 (ip), vehicle: saline) 219 % of control. The T/C (endpoint: median tumor weight (est.), dose: 64.0 mg/kg/injection, schedule: Q07DX005 (ip), vehicle: saline) is 105 % of control.
On to `CCN(CC)CCCC(C)Nc1c2ccc(Cl)cc2nc2ccc(OC)cc12` (centres undefined), for which the T/C reads like this: (endpoint: median tumor weight (est.), dose: 12.5 mg/kg/injection, schedule: Q07DX005 (ip), vehicle: saline) 88 % of control; (endpoint: median tumor weight (est.), dose: 25.0 mg/kg/injection, schedule: Q07DX005 (ip), vehicle: saline) 65 % of control; (endpoint: median tumor weight (est.), dose: 25.0 mg/kg/injection, schedule: Q07DX005 (ip), vehicle: suspension in saline) 60 % of control; (endpoint: median tumor weight (est.), dose: 50.0 mg/kg/injection, schedule: Q07DX005 (ip), vehicle: saline) 90 % of control; (endpoint: median tumor weight (est.), dose: 50.0 mg/kg/injection, schedule: Q07DX005 (ip), vehicle: suspension in saline) 94 % of control; (endpoint: median tumor weight (est.), dose: 100.0 mg/kg/injection, schedule: Q07DX005 (ip), vehicle: saline) 74 % of control. Further, the T/C (endpoint: median tumor weight (est.), dose: 100.0 mg/kg/injection, schedule: Q07DX005 (ip), vehicle: suspension in saline) was 50 % of control.
On to `CCCCCCCCCCCCCC#CC(=O)O`, for which the T/C was 75 % of control and 95 % of control under setting [2]; 68 % of control and 81 % of control under setting [3]; 72 % of control under setting [4]; 78 % of control under setting [5].
On to `O=C(O)C1Cc2nc[nH]c2CN1CO` (centres undefined), for which the T/C reads like this: under setting [3], 118 % of control; under setting [4], 94 % of control; under setting [5], 93 % of control; (endpoint: median tumor weight change, dose: 1000.0 mg/kg/injection, schedule: Q01DX001 (ip), vehicle: saline with Tween-80) 77 % of control; (endpoint: median tumor weight change, dose: 2000.0 mg/kg/injection, schedule: Q01DX001 (ip), vehicle: saline with Tween-80) 81 % of control.
As to `NNC(=S)N/N=C/c1ccccn1`, the T/C by setting is: (endpoint: median tumor weight (est.), dose: 6.25 mg/kg/injection, schedule: Q07DX005 (ip), vehicle: saline with Tween-80) 112 % of control; (endpoint: median tumor weight (est.), dose: 12.5 mg/kg/injection, schedule: Q07DX005 (ip), vehicle: saline with Tween-80) 84 % of control; (endpoint: median tumor weight (est.), dose: 25.0 mg/kg/injection, schedule: Q07DX005 (ip), vehicle: saline with Tween-80) 81 % of control; (endpoint: median tumor weight (est.), dose: 50.0 mg/kg/injection, schedule: Q07DX005 (ip), vehicle: saline with Tween-80) 59 % of control.
On to `CN=C(N)N/N=C(\c1ccccc1)c1ccc(Br)cc1`, for which the T/C runs as follows: (endpoint: median tumor weight change, dose: 15.6 mg/kg/injection, schedule: Q01DX001 (ip), vehicle: saline with Tween-80) 71 % of control; (endpoint: median tumor weight change, dose: 31.25 mg/kg/injection, schedule: Q01DX001 (ip), vehicle: saline with Tween-80) 56 % of control; under setting [2], 55 % of control.
